Experimental data reported in ChEMBL document CHEMBL1201862, “PubChem BioAssay data set” (2004).
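Values below derive from 48-hour exposures of cells grown in 96-well plates, with endpoints linearly interpolated between the two concentrations bracketing the appropriate inhibition level. GI50 = concentration required for 50% inhibition of growth.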 Active and inactive are the calls of the source. No stated cut-off is given here; in the data, active = GI50 up to about 1.1 µM and inactive = higher.

Key:
Assay in all cases: DTP human tumour cell line panel, 48 h
[1] = system: MDA-MB-435
[2] = system: MOLT-4
[3] = system: TK-10
[4] = system: DU-145
[5] = system: M14
[6] = system: K562
[7] = system: SK-OV-3
[8] = system: MCF7
[9] = system: ACHN
[10] = system: LOX IMVI
[11] = system: HL-60
[12] = system: RPMI-8226
[13] = system: CCRF-CEM
[14] = system: T47D
[15] = system: OVCAR-3
[16] = system: IGROV-1
[17] = system: SK-MEL-2
[18] = system: HOP-62
[19] = system: NCI-H226
[20] = system: SNB-19

Measured: GI50

CCOC(=O)Cc1[nH]c(C(=O)c2ccccc2)cc1C(=O)c1ccccc1
inactive: [1] 13.8 µM | [2] 14.8 µM | [3] 36 µM | [4] > 10 µM | [5] 88.1 µM | [6] > 10 µM | [7] > 100 µM | [8] > 10 µM | [9] > 10 µM | [10] 22.2 µM | [11] 33.1 µM | [12] > 10 µM | [13] > 10 µM | [14] 17.7 µM | [15] 46.3 µM | [16] > 10 µM | [17] 39 µM | [18] 23.8 µM | [19] 23.3 µM | [20] > 100 µM

C1CCNCC1.Oc1ncnc2[nH]cc(CN3CCCCC3)c12
inactive: [1] > 100 µM | [2] 15.2 µM | [3] 46 µM | [4] 32.5 µM | [5] > 100 µM | [6] > 100 µM | [7] > 100 µM | [8] 28.8 µM | [9] 98.4 µM | [10] > 100 µM | [11] 19.8 µM | [12] 22 µM | [13] 16.4 µM | [14] 57.9 µM | [15] > 100 µM | [16] > 100 µM | [17] > 100 µM | [18] > 100 µM | [19] > 100 µM | [20] > 100 µM
